From patent US11542311B2, “Fusion protein, preparation method therefor and application thereof in preparing ophthalmic disease treatment, anti-inflammation and anti-tumor medicament” (JIANGSU RONGTAI BIOTECH CO., LTD., priority 2017, dated 2023)

What was measured:
[1] = system: Human umbilical vein endothelial cells (HUVECs); experiment: Three-dimensional transwell assay, migration of HUVEC; assay type: cell-based; settings: 8.0 · 10^−6 μg/mL, 24 h
Protocol: (1) 10 mg/mL Matrigel (a basement membrane matrix secreted by Engelbreth-Holm-Swarm (EHS) mouse sarcoma cells) diluted with a DMEM medium (Dulbecco's Modified Eagle Medium) at a ratio of 1:4, coated on a transwell chamber membrane, and air-dried at room temperature;
(2) HUVEC cells cultured to logarithmic phase were digested with 0.2% EDTA, collected, washed twice with PBS, followed by resuspended in an endothelial cell culture liquid containing 0.1% BSA, and counted under a microscope, and the cell concentration was adjusted to 1×10^5 cells/mL;
(3) Test solutions for each group were formulated and diluted to 100 μL with a cell culture liquid containing 0.1% BSA;
(4) The cells were inoculated into a transwell chamber, 100 μL per well, and test solutions for each group were added to the chamber. To a 24-well plate, 0.6 mL of endothelial cell culture liquid containing 5% fetal bovine serum and 1×ECGS was added to stimulate cell migration, and incubated at 5% CO2 at 37° C. for 24 h;
(5) The culture liquid in the well was discarded. […] The migration inhibition (MI) was calculated according to the formula: […]
The test was repeated 3 times independently. The results obtained from the test were calculated as mean±SD, and statistical t-test was performed. […]

[2] = system: adjuvant arthritis in rat; experiment: Chronic inflammation of adjuvant arthritis in rat; assay type: in vivo, SD rats; settings: 1 mg/kg once every 5 days for 15 days
Protocol: 80 SPF SD rats were randomly divided into 8 groups. Rats in each group were lightly anesthetized with ether. Then, 0.1 mL of complete Freund's adjuvant containing inactivated Mycobacterium tuberculosis was injected subcutaneously into the left hind foot of the rats. Primary arthritis occurred in the left hind foot of the rat, and at about 13 days post-modeling, secondary arthritis occurred in the right hind foot. A blank control group was injected with an equal volume of physiological saline. The drug was administered 13 days after modeling.
Using a foot volume measuring method, a marker was made with a fat-soluble marker at the left and right posterior ankle joints of each rat, and the left and right hind feet of the animal were respectively immersed in the volume measuring device. The immersion depth was bounded by the marker, and the reading value at the scale pipette of the device was the initial volume of the animal's left and right hind feet.
The day of modeling was considered as the 0th day and recorded as d0. The volume of the left hind foot (modeling foot) was measured from the first day dl after modeling every 2 days. When the swelling occurred (i.e., secondary arthritis occurred) at the contralateral non-inflammatory foot (right hind foot), the administration was started. The volume of the left and right hind feet was measured once every 2 days, and the degree of primary and secondary toe swelling was determined, which was calculated as follows: Primary toe swelling (mL)=left hind foot volume on the day of measurement−initial volume of left hind foot Secondary toe swelling (mL)=right hind foot volume on the day of measurement−initial volume of right hind foot
Systemic score: the systemic score was taken every 2 days after the onset of secondary inflammation.
Hind foot: no swelling=0 score, one hind foot swelling=1 score, two hind feet swelling=2 scores;
Forefoot: no swelling=0 score, one forefoot swelling=1 score, two forefeet swelling=2 scores;
Ears: no redness and nodules=0 score, redness or nodules in one ear=1 score, redness and nodules in both ears=2 scores;
Nose: no swelling=0 score, obvious swelling=1 score;
Tail: no nodules=0 score, nodules=1 score; full score was 8 scores.
Arthritis index score: the arthritis index score was performed every 2 days after the onset of secondary inflammation.
The initial body weight of each group of rats was weighed before modeling. The body weight was measured every 2 days from dl after modeling, from which the initial body weight was subtracted to obtain the weight gain of each group of rats.

[3] = system: xylene-induced ear swelling in mice; experiment: Xylene-induced ear swelling in mice; assay type: in vivo, Kunming mice; settings: 200 mg/kg
Protocol: 80 Kunming mice were divided into 8 groups with 10 mice for each group and numbered. A physiological saline group was used as a blank control group, an aspirin group (200 mg/kg) was used as a positive control group, and fusion proteins I and II at high, medium and low doses (128, 32, 8 mg/kg) was used as the experimental groups. Mice were administered once by injection every 5 days. The blank control group was given an equal volume of physiological saline. On the fifth day after the administration, 0.05 mL of xylene was applied to both sides of the right ears of the mice to induce inflammation, and the left ears were not applied and were normal ears. After 2 h, the mice were sacrificed by dislocation, and the ears were cut along the auricle. Ear pieces were taken with a puncher and weighed, and the swelling degree and swelling rate were calculated. Swelling degree=right ear piece weight-left ear piece weight, swelling rate=(swelling degree/left ear piece weight)×100%.

[4] = system: melanoma cell B16F10; experiment: MTT assay, proliferation of melanoma cell B16F10; assay type: cell-based; settings: 5 μg/mL, 48 h
Protocol: (§1) The MTT assay was used to detect the inhibitory effect of the integrin blocker fusion protein obtained in Example 1 on the proliferation of various tumor cells, including melanoma cell B16F10, gastric cancer cell MGC-803, lung cancer cell A549, liver cancer cell Hep-G2, breast cancer cell MDA-MB-231, colon cancer cell HCT-116, human glioma U87, and cervical cancer cell Hela.
(§2) The tumor cells were cultured in a 5% CO2 incubator at 37° C. to a density of 90% or more, and collected by trypsinization. The cells were resuspended in the culture liquid and counted under a microscope. The cell concentration was adjusted to 3.0×10^4 cells/mL. The cell suspension was inoculated into a 96-well plate, 100 μL per well, and cultured overnight in a 5% CO2 incubator at 37° C. The fusion proteins I, II, and the positive drug Taxol were diluted with the culture liquid to respective predetermined concentrations. After the cells were fully adhered, each dilution was added to a 96-well plate, 100 μL per well, respectively. […] The absorbance was measured at 570 nm with a microplate reader with a reference wavelength of 630 nm, and the proliferation inhibition (PI) was calculated. […]
(§3) The test was repeated 5 times independently. The results obtained from the test were calculated as mean±SD, and statistical t-test was performed. […]

[5] = system: gastric cancer cell MGC-803; experiment: MTT assay, proliferation of gastric cancer cell MGC-803; assay type: cell-based; settings: 5 μg/mL, 48 h
Protocol: as §1, §2, §3

[6] = system: lung cancer cell A549; experiment: MTT assay, proliferation of lung cancer cell A549; assay type: cell-based; settings: 5 μg/mL, 48 h
Protocol: as §1, §2, §3

[7] = system: liver cancer cell Hep-G2; experiment: MTT assay, proliferation of liver cancer cell Hep-G2; assay type: cell-based; settings: 5 μg/mL, 48 h
Protocol: as §1, §2, §3

[8] = system: breast cancer cell MDA-MB-231; experiment: MTT assay, proliferation of breast cancer cell MDA-MB-231; assay type: cell-based; settings: 5 μg/mL, 48 h
Protocol: as §1, §2, §3

[9] = system: colon cancer cell HCT-116; experiment: MTT assay, proliferation of colon cancer cell HCT-116; assay type: cell-based; settings: 5 μg/mL, 48 h
Protocol: as §1, §2, §3

[10] = system: human glioma U87; experiment: MTT assay, proliferation of human glioma U87; assay type: cell-based; settings: 5 μg/mL, 48 h
Protocol: as §1, §2, §3

[11] = system: cervical cancer cell Hela; experiment: MTT assay, proliferation of cervical cancer cell Hela; assay type: cell-based; settings: 5 μg/mL, 48 h
Protocol: as §1, §2, §3

CCN(CC)CCNC(=O)c1c(C)[nH]c(/C=C2\C(=O)Nc3ccc(F)cc32)c1C [Sunitinib, reference compound]
MI (%) [1]: 82.31%
Migration cell number [1]: 441.0 ± 150.58

CN(Cc1cnc2nc(N)nc(N)c2n1)c1ccc(C(=O)N[C@@H](CCC(=O)O)C(=O)O)cc1 [Methotrexate, methotrexate, reference compound]
Clinical score Arthritis index [2]: 2.96 ± 0.57
Clinical score Whole body [2]: 1.34 ± 0.19
Foot swelling degree (mL) Left [2]: 1.22 ± 0.21 mL
Foot swelling degree (mL) Right [2]: 1.25 ± 0.13 mL
Weight gain [2]: 47.35 ± 17.40 g

CC(=O)Oc1ccccc1C(=O)O [Aspirin, aspirin, reference compound]
PI (%) ([3]; ear swelling, mice): 53.15%
Swelling degree ([3]; mouse ear, 2 h after xylene): 3.12 ± 0.61 mg

CC(=O)O[C@H]1C(=O)[C@@]2(C)[C@H]([C@H](OC(=O)c3ccccc3)[C@]3(O)C[C@H](OC(=O)[C@H](O)[C@@H](NC(=O)c4ccccc4)c4ccccc4)C(C)=C1C3(C)C)[C@]1(OC(C)=O)CO[C@@H]1C[C@@H]2O [Taxol, reference compound]
A570 nm/A630 nm [4]: 0.6011 ± 0.0144
PI (%) [4]: 52.13%
A570 nm/A630 nm [5]: 0.4146 ± 0.0186
PI (%) [5]: 56.60%
A570 nm/A630 nm [6]: 0.3226 ± 0.0309
PI (%) [6]: 52.17%
A570 nm/A630 nm [7]: 0.4257 ± 0.0099
PI (%) [7]: 58.55%
A570 nm/A630 nm [8]: 0.4071 ± 0.0301
PI (%) [8]: 52.83%
A570 nm/A630 nm [9]: 0.2098 ± 0.0164
PI (%) [9]: 69.16%
A570 nm/A630 nm [10]: 0.1825 ± 0.0163
PI (%) [10]: 76.38%
A570 nm/A630 nm [11]: 0.2078 ± 0.0162
PI (%) [11]: 83.75%
